# Measurements published in patent US7524503B2, “Human cytomegalovirus (HCMV) cytotoxic T cell epitopes, polyepitopes compositions comprising same and diagnostic and prophylactic and therapeutic uses therefor” (priority 2001, dated 2009).
# Where no end group is shown, it is not given here.
# Test system: PBMC from healthy HCMV seropositive donors
# Assay: IFN-γ ELISPOT assay
# Type: cell-based, human
# Conditions: donor eight; peptide 10 μg/ml
# Description: ELISPOT assay was used to assess whether stimulation of PBMC from a large panel of seropositive donors with HCMV peptides could induce IFN-γ expression in T cells. Briefly, a 96-well nitrocellulose plate (Multiscreen, Millipore) was coated overnight at 4° C. with mouse monoclonal antibody anti-IFN-γ IgG1 (10 μg/ml; Mabtech Nacka, Sweden). The plate was then washed six times in Phosphate Buffered Saline (PBS) and blocked for 1 hour at 37° C. with PBS supplemented with 5% FCS. The blocking solution was removed and PBMC from healthy HCMV seropositive donors were added at a concentration of 2.5×10^5 cells per well in growth medium. These cells were incubated for 18 h at 37° C. in a 5% CO2 atmosphere in the presence of synthetic peptides from HCMV antigens (10 μg/ml). After incubation, the plate was washed three times with PBS supplemented with 0.05% Tween, followed by three washes with PBS alone. Biotinylated anti-IFN-γ (Mabtech, Nacka Sweden) detection antibody was added to each well at a final concentration of 1 μg/ml in PBS. The plates were incubated at room temperature in the dark for 4 h and then washed, as described above. Streptavidin-Alkaline phosphatase (Sigma) was added to each well at a final concentration of 1 μg/ml in PBS and incubated at room temperature in the dark for 2 h. After a final wash with PBS, the substrate, 5-bromo-4-chloro-3-indolyl phosphate and nitro blue tetrazolium, was added to each well and the plates incubated for 30 min at RT. Cells that produced IFN-γ in response to the presence of peptide were detected as purple spots on the nitrocellulose membrane of each well. The spots were counted automatically using a closed-circuit camera (CCD) and ImagePro image analysis software or automated ELISPOT reader (AID, Germany). The T cell precursor frequency for each peptide was based on the total number of PBMC in the well and the number of peptide-specific spots per well, over an average of 3 wells. The number of peptide-specific spots was also calculated by subtracting the negative control values, which consisted of PBMC without peptide (an average of 3 wells), from the test wells.
# To determine whether memory CTL responses against the predictive HCMV potential epitopes could be detected in healthy seropositive virus carriers, we used the ELISPOT assay, which allows rapid identification of CTL epitopes without prolonged in vitro culture.
# We tested epitopes that were restricted for HLA A1, A3, A24, A26, B7, B8, B27, B35 and B44 in ELISPOT assays, to determine whether memory T cell responses could be detected in healthy HLA-matched virus carriers. PBMC from a cohort of healthy virus carriers (Table 2) were stimulated with individual peptides and the cells that produced IFN-γ were detected. CTL epitopes that were restricted through either HLA A1, A3, A24, A26, B7, B8 or B27, were identified.
# Thus, a total of 450 peptides were produced. ELISPOT assays were used to determine whether ex vivo memory T cell responses could be detected in a cohort of 14 healthy virus carriers (Table 2). PBMC were stimulated with individual peptides and the cells that produced IFN-γ were detected.
row,Sequence,ELISPOT Responses (SFC/10^6 PBMC)
1,ASSPSTGSGTPRBTSPTHPL (ASSPSTGSGTPRXTSPTHPL; not fully specified),JW(95) SFC/10^6 PBMC
2,PRVTSPTHPLSQMNHPPLPD,52 SFC/10^6 PBMC
3,YRNMIIHAATPVDLLGALNL (human cytomegalovirus IE2 CTL epitope peptide),132 SFC/10^6 PBMC

# Same assay, conditions: donor eleven; peptide 10 μg/ml
row,Sequence,ELISPOT Responses (SFC/10^6 PBMC)
1,IGDQYVKVY,565
2,TVQGQNLKY,385

# Same assay, conditions: donor epsilon; peptide 10 μg/ml
row,Sequence,ELISPOT Responses (SFC/10^6 PBMC)
1,HRQDALPGPCIASTPKKHRG,SC(109) SFC/10^6 PBMC
2,LTVSGLAWTRQQNQWKEPDV,SC(695) SFC/10^6 PBMC
3,PVDLLGALNLCLPLMQKFPK (human cytomegalovirus IE2 CTL epitope peptide),111 SFC/10^6 PBMC
4,RVKIDEVSRMFRNTNRSLEY,306 SFC/10^6 PBMC
5,THQLCPRSSDYRNMIIHAAT (human cytomegalovirus IE2 CTL epitope peptide),173 SFC/10^6 PBMC
6,TSAGRKRKSASSATACTSGV,SC(138) SFC/10^6 PBMC
7,WQPAAQPKRRRHRQDALPGP,SC(615) SFC/10^6 PBMC
8,YRHTWDRHDEGAAQGDDDVW,SC(295) SFC/10^6 PBMC
9,YRNMIIHAATPVDLLGALNL (human cytomegalovirus IE2 CTL epitope peptide),229 SFC/10^6 PBMC

# Same assay, conditions: donor fifteen; peptide 10 μg/ml
row,Sequence,ELISPOT Responses (SFC/10^6 PBMC)
1,NIEFFTKNSAFPKTTNGCSQ (human cytomegalovirus IE1 CTL epitope peptide),CP(1767) SFC/10^6 PBMC
2,RRKMMYMCYRNIEFFTKNSA (human cytomegalovirus IE1 CTL epitope peptide),CP(632) SFC/10^6 PBMC

# Same assay, conditions: donor five; peptide 10 μg/ml
row,Sequence,ELISPOT Responses (SFC/10^6 PBMC)
1,TENGSFVAGY (human cytomegalovirus UL18 CTL epitope peptide),CS(283) SFC/10^6 PBMC
2,YEQHKITSY (human cytomegalovirus pp50 CTL epitope peptide),CS(67) SFC/10^6 PBMC

# Same assay, conditions: donor four; peptide 10 μg/ml
row,Sequence,ELISPOT Responses (SFC/10^6 PBMC)
1,ALTVSEHVSYVVTNQYLIKG,MB(23) SFC/10^6 PBMC
2,FETSGGLVVFWQGIKQKSLV (human cytomegalovirus gB CTL epitope peptide),23 SFC/10^6 PBMC
3,RPSTPRAAV (human cytomegalovirus pp150 CTL epitope peptide),MB(306) SFC/10^6 PBMC

# Same assay, conditions: donor nine; peptide 10 μg/ml
row,Sequence,ELISPOT Responses (SFC/10^6 PBMC)
1,RGDPFDKNY (human cytomegalovirus pp50 CTL epitope peptide),720

# Same assay, conditions: donor seven; peptide 10 μg/ml
row,Sequence,ELISPOT Responses (SFC/10^6 PBMC)
1,FETSGGLVVFWQGIKQKSLV (human cytomegalovirus gB CTL epitope peptide),185 SFC/10^6 PBMC
2,MLPLIKQEDIKPEPDFTIQY,SB(132) SFC/10^6 PBMC

# Same assay, conditions: donor sixteen; peptide 10 μg/ml
row,Sequence,ELISPOT Responses (SFC/10^6 PBMC)
1,ATSTGDVVY (human cytomegalovirus gB CTL epitope peptide),TC(239) SFC/10^6 PBMC
2,CTPNVQTRRGRVKIDEVSRM,TC(89) SFC/10^6 PBMC
3,CVETMCNEY (human cytomegalovirus IE1 CTL epitope peptide) [reference compound],TC(4187) SFC/10^6 PBMC
4,DEEEAIVAY (human cytomegalovirus IE1 CTL epitope peptide),TC(3903) SFC/10^6 PBMC
5,GLDRNSGNY (human cytomegalovirus pp50 CTL epitope peptide),507 SFC/10^6 PBMC
6,IGDQYVKVY,67 SFC/10^6 PBMC
7,IKEHMLKKY (human cytomegalovirus IE1 CTL epitope peptide),TC(4232) SFC/10^6 PBMC
8,KCSSGGGASVTSSHHGRGGF,TC(54) SFC/10^6 PBMC
9,KDVALRHVVCAHELVCSMEN,TC(50) SFC/10^6 PBMC
10,LDEGIMVVY (human cytomegalovirus gB CTL epitope peptide),TC(239) SFC/10^6 PBMC
11,NTDFRVLEL (human cytomegalovirus gB CTL epitope peptide),TC(1631) SFC/10^6 PBMC
12,PLGRPDEDSSSSSSSSCSSA,TC(46) SFC/10^6 PBMC
13,PRVTSPTHPLSQMNHPPLPD,96 SFC/10^6 PBMC
14,PVDLLGALNLCLPLMQKFPK (human cytomegalovirus IE2 CTL epitope peptide),169 SFC/10^6 PBMC
15,RGDPFDKNY (human cytomegalovirus pp50 CTL epitope peptide),2739 SFC/10^6 PBMC
16,RVKIDEVSRMFRNTNRSLEY,194 SFC/10^6 PBMC
17,THQLCPRSSDYRNMIIHAAT (human cytomegalovirus IE2 CTL epitope peptide),124 SFC/10^6 PBMC
18,TVQGQNLKY,251 SFC/10^6 PBMC
19,VKESPGRCY (human cytomegalovirus gB CTL epitope peptide),TC(51) SFC/10^6 PBMC
20,YRNMIIHAATPVDLLGALNL (human cytomegalovirus IE2 CTL epitope peptide),TC(137) SFC/10^6 PBMC

# Same assay, conditions: donor three; peptide 10 μg/ml
row,Sequence,ELISPOT Responses (SFC/10^6 PBMC)
1,GLDRNSGNY (human cytomegalovirus pp50 CTL epitope peptide),345 SFC/10^6 PBMC
2,HANTALVNAVNKLVYTGRLI (human cytomegalovirus pp150 CTL epitope peptide),MW(122) SFC/10^6 PBMC
3,STSQKPVLGKRVATPHASAR (human cytomegalovirus pp150 CTL epitope peptide),MW(215) SFC/10^6 PBMC

# Target: T1, HLA A2 (Homo sapiens, UniProt P04439, D140Y/D185E/D98H/E176V/E277Q/G131W/G231S/I119V/I121R/I166T/I218V/L300P/L318F/N151K/N90K/P208A/P217A/Q86G/Q94H/R138H/R169H/T345S)
# T1 construct: endogenous in cells; host or cells: T2 cells
# Assay: not given
# Type: cell-based
# Conditions: HLA A2 on T2 cells; relative increase in HLA expression vs no peptide at 26° C.
row,Sequence,MSE (MHC stabilization efficiency)
1,ALDPYNEVV (human cytomegalovirus gH CTL epitope peptide),+++ (+++ = 200-300%)
2,ALFFFDIDL [reference compound],++ (++ = 100-199%)
3,DLDEGIMVV (human cytomegalovirus gB CTL epitope peptide),− (− = 0-50%)
4,DLVPLTVSV (human cytomegalovirus pp71 CTL epitope peptide),+ (+ = 51-99%)
5,FLGARSPSL (human cytomegalovirus pp150 CTL epitope peptide),++ (++ = 100-199%)
6,FLLSHDAAL (human cytomegalovirus pp28 CTL epitope peptide),++ (++ = 100-199%)
7,GLDDLMSGL (human cytomegalovirus gB CTL epitope peptide),++ (++ = 100-199%)
8,GLLGASMDL (human cytomegalovirus pp28 CTL epitope peptide),− (− = 0-50%)
9,IILVAIAVV (human cytomegalovirus gB CTL epitope peptide),+ (+ = 51-99%)
10,ILDEERDKV (human cytomegalovirus IE1 CTL epitope peptide),++ (++ = 100-199%)
11,ILFDGHDLL (human cytomegalovirus gH CTL epitope peptide),+++ (+++ = 200-300%)
12,ILGADPLRV (human cytomegalovirus IE1 CTL epitope peptide),++ (++ = 100-199%)
13,LLGALNLCL (human cytomegalovirus IE2 CTL epitope peptide),++ (++ = 100-199%)
14,LLIPKSFTL (human cytomegalovirus pp71 CTL epitope peptide),− (− = 0-50%)
15,LLLIVTPVV (human cytomegalovirus pp28 CTL epitope peptide),++ (++ = 100-199%)
16,LLMMSVYAL (human cytomegalovirus gH CTL epitope peptide),++ (++ = 100-199%)
17,LLSEFCRVL (human cytomegalovirus IE1 CTL epitope peptide),++ (++ = 100-199%)
18,LLVEPCARV (human cytomegalovirus pp28 CTL epitope peptide),++ (++ = 100-199%)
19,LLYPTAVDL (human cytomegalovirus gH CTL epitope peptide),+++ (+++ = 200-300%)
